Reference: patent US9738634B2, “Heterocyclic amide compound and herbicide” (SYNGENTA PARTICIPATIONS AG, priority 2013, dated 2017)

Columns and labels:
Assay type in all cases: in vivo
[1] = test system: wheat; experiment: Test Example 3: soil treatment, effect on crop; e: wheat; settings: soil treatment, treatment dosage 320 g/ha
In short: (§1)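 Crop and weed responses were judged three weeks after a uniform surface spray of the water-diluted emulsion at the given g/ha rate. Seeds sat beneath about 1.5 cm of sterilized diluvial soil, and boxes stood in a greenhouse at 25 to 30° C.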

[2] = test system: green foxtail; experiment: Test Example 3: weedkilling efficacy through soil treatment; E: green foxtail; settings: soil treatment, treatment dosage 320 g/ha
In short: as §1

[3] = test system: directly sown rice; experiment: Test Example 3: soil treatment, effect on crop; b: directly sown rice; settings: soil treatment, treatment dosage 320 g/ha
In short: as §1

[4] = test system: fig-leafed goosefoot; experiment: Test Example 3: weedkilling efficacy through soil treatment; M: fig-leafed goosefoot; settings: soil treatment, treatment dosage 320 g/ha
In short: as §1

[5] = test system: transplanted rice; experiment: Test Example 1: preemergent weed treatment in the submerged state, effect on crop; a: transplanted rice; settings: treatment dosage 320 g/ha
In short: (§2)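 Submerged pre-emergence treatment, water-surface application of compound emulsion at g/ha dosages; 4 cm flooded alluvial soil, weeds sown and 2.5-leaf rice transplanted same day. Rated after 3 weeks, greenhouse.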

[6] = test system: barnyard grass; experiment: Test Example 3: weedkilling efficacy through soil treatment; F: barnyard grass; settings: soil treatment, treatment dosage 320 g/ha
In short: as §1

[7] = test system: oval-leafed pondweed; experiment: Test Example 2: weedkilling efficacy, growth period weed treatment in the submerged state; C: oval-leafed pondweed; settings: treatment dosage 320 g/ha
In short: (§3)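 Seedlings at 1-2 leaves in 4 cm-deep submerged alluvial soil received emulsion formulations on the water surface, dosed per hectare; effects were judged 3 weeks on.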

[8] = test system: bulrush; experiment: Test Example 1: weedkilling efficacy, preemergent weed treatment in the submerged state; B: bulrush; settings: treatment dosage 320 g/ha
In short: as §2

[9] = test system: catchweed; experiment: Test Example 3: weedkilling efficacy through soil treatment; O: catchweed; settings: soil treatment, treatment dosage 320 g/ha
In short: as §1

[10] = test system: redroot pigweed; experiment: Test Example 3: weedkilling efficacy through soil treatment; L: redroot pigweed; settings: soil treatment, treatment dosage 320 g/ha
In short: as §1

[11] = test system: crabgrass; experiment: Test Example 3: weedkilling efficacy through soil treatment; D: crabgrass; settings: soil treatment, treatment dosage 320 g/ha
In short: as §1

[12] = test system: Italian ryegrass; experiment: Test Example 3: weedkilling efficacy through soil treatment; I: Italian ryegrass; settings: soil treatment, treatment dosage 320 g/ha
In short: as §1

[13] = test system: bulrush; experiment: Test Example 2: weedkilling efficacy, growth period weed treatment in the submerged state; B: bulrush; settings: treatment dosage 320 g/ha
In short: as §3

[14] = test system: barnyard grass; experiment: Test Example 2: weedkilling efficacy, growth period weed treatment in the submerged state; A: barnyard grass; settings: treatment dosage 320 g/ha
In short: as §3

[15] = test system: chickweed; experiment: Test Example 3: weedkilling efficacy through soil treatment; N: chickweed; settings: soil treatment, treatment dosage 320 g/ha
In short: as §1

[16] = test system: wild oat; experiment: Test Example 3: weedkilling efficacy through soil treatment; G: wild oat; settings: soil treatment, treatment dosage 320 g/ha
In short: as §1

[17] = test system: common wind-grass; experiment: Test Example 3: weedkilling efficacy through soil treatment; J: common wind-grass; settings: soil treatment, treatment dosage 320 g/ha
In short: as §1

[18] = test system: soybean; experiment: Test Example 3: soil treatment, effect on crop; d: soybean; settings: soil treatment, treatment dosage 320 g/ha
In short: as §1

[19] = test system: black-grass; experiment: Test Example 3: weedkilling efficacy through soil treatment; H: black-grass; settings: soil treatment, treatment dosage 320 g/ha
In short: as §1

[20] = test system: rapeseed; experiment: Test Example 3: soil treatment, effect on crop; g: rapeseed; settings: soil treatment, treatment dosage 320 g/ha
In short: as §1

[21] = test system: beet; experiment: Test Example 3: soil treatment, effect on crop; f: beet; settings: soil treatment, treatment dosage 320 g/ha
In short: as §1

[22] = test system: barnyard grass; experiment: Test Example 1: weedkilling efficacy, preemergent weed treatment in the submerged state; A: barnyard grass; settings: treatment dosage 320 g/ha
In short: as §2

[23] = test system: corn; experiment: Test Example 3: soil treatment, effect on crop; c: corn; settings: soil treatment, treatment dosage 320 g/ha
In short: as §1

[24] = test system: oval-leafed pondweed; experiment: Test Example 1: weedkilling efficacy, preemergent weed treatment in the submerged state; C: oval-leafed pondweed; settings: treatment dosage 320 g/ha
In short: as §2

[25] = test system: birds-eye speedwell; experiment: Test Example 3: weedkilling efficacy through soil treatment; p: birds-eye speedwell; settings: soil treatment, treatment dosage 320 g/ha
In short: as §1

[26] = test system: Indian mallow; experiment: Test Example 3: weedkilling efficacy through soil treatment; K: Indian mallow; settings: soil treatment, treatment dosage 320 g/ha
In short: as §1

Compound	e: wheat, effect on crop grade [1]	E: green foxtail, weedkilling efficacy grade [2]	b: directly sown rice, effect on crop grade [3]	M: fig-leafed goosefoot, weedkilling efficacy grade [4]	a: transplanted rice, effect on crop grade [5]	F: barnyard grass, weedkilling efficacy grade [6]	C (oval-leafed pondweed) weedkilling efficacy grade [7]	B: bulrush, weed kill grade [8]	O: catchweed, weedkilling efficacy grade [9]	L: redroot pigweed, weedkilling efficacy grade [10]	D: crabgrass, weedkilling efficacy grade [11]	I: Italian ryegrass, weedkilling efficacy grade [12]	B (bulrush) weedkilling efficacy grade [13]	A (barnyard grass) weedkilling efficacy grade [14]	N: chickweed, weedkilling efficacy grade [15]	G: wild oat, weedkilling efficacy grade [16]	J: common wind-grass, weedkilling efficacy grade [17]	d: soybean, effect on crop grade [18]	H: black-grass, weedkilling efficacy grade [19]	g: rapeseed, effect on crop grade [20]	further results
CC(C)(C(=O)Nc1cc(Cl)cc(-c2ccccc2)n1)N1COCN(c2ccccc2)C1=O [A-2-31]	0 (weed kill ratio 5% or less (practically no effect))	2 (weed kill ratio 20% or more, less than 40%)	0 (weed kill ratio 5% or less (practically no effect))	2 (weed kill ratio 20% or more, less than 40%)	0 (weed kill ratio 5% or less (practically no effect))	2 (weed kill ratio 20% or more, less than 40%)	4 (weed kill ratio 70% or more, less than 90%)	5 (weed kill ratio 90% or more, (practically complete withering))	3 (weed kill ratio 40% or more, less than 70%)	0 (weed kill ratio 5% or less (practically no effect))	2 (weed kill ratio 20% or more, less than 40%)	1 (weed kill ratio 5% or more, less than 20%)	5 (weed kill ratio 90% or more, (practically complete withering))	5 (weed kill ratio 90% or more, (practically complete withering))	3 (weed kill ratio 40% or more, less than 70%)	2 (weed kill ratio 20% or more, less than 40%)	4 (weed kill ratio 70% or more, less than 90%)	0 (weed kill ratio 5% or less (practically no effect))	3 (weed kill ratio 40% or more, less than 70%)	0 (weed kill ratio 5% or less (practically no effect))	f: beet, effect on crop grade [21]: 0 (weed kill ratio 5% or less (practically no effect)); A: barnyard grass, weed kill grade [22]: 5 (weed kill ratio 90% or more, (practically complete withering)); c: corn, effect on crop grade [23]: 0 (weed kill ratio 5% or less (practically no effect)); C: oval-leafed pondweed, weed kill grade [24]: 5 (weed kill ratio 90% or more, (practically complete withering)); P: birds-eye speedwell, weedkilling efficacy grade [25]: 3 (weed kill ratio 40% or more, less than 70%); K: Indian mallow, weedkilling efficacy grade [26]: 0 (weed kill ratio 5% or less (practically no effect))
CC(C)(C(=O)Nc1ccc(F)cn1)N1COCN(c2ccccc2)C1=O [A-2-04]	0 (weed kill ratio 5% or less (practically no effect))	3 (weed kill ratio 40% or more, less than 70%)	0 (weed kill ratio 5% or less (practically no effect))	0 (weed kill ratio 5% or less (practically no effect))	0 (weed kill ratio 5% or less (practically no effect))	3 (weed kill ratio 40% or more, less than 70%)	4 (weed kill ratio 70% or more, less than 90%)	5 (weed kill ratio 90% or more, (practically complete withering))	0 (weed kill ratio 5% or less (practically no effect))	0 (weed kill ratio 5% or less (practically no effect))	3 (weed kill ratio 40% or more, less than 70%)	3 (weed kill ratio 40% or more, less than 70%)	5 (weed kill ratio 90% or more, (practically complete withering))	5 (weed kill ratio 90% or more, (practically complete withering))	2 (weed kill ratio 20% or more, less than 40%)	0 (weed kill ratio 5% or less (practically no effect))	4 (weed kill ratio 70% or more, less than 90%)	0 (weed kill ratio 5% or less (practically no effect))	2 (weed kill ratio 20% or more, less than 40%)	0 (weed kill ratio 5% or less (practically no effect))	f: beet, effect on crop grade [21]: 0 (weed kill ratio 5% or less (practically no effect)); A: barnyard grass, weed kill grade [22]: 4 (weed kill ratio 70% or more, less than 90%); c: corn, effect on crop grade [23]: 0 (weed kill ratio 5% or less (practically no effect)); C: oval-leafed pondweed, weed kill grade [24]: 4 (weed kill ratio 70% or more, less than 90%); P: birds-eye speedwell, weedkilling efficacy grade [25]: 0 (weed kill ratio 5% or less (practically no effect)); K: Indian mallow, weedkilling efficacy grade [26]: 0 (weed kill ratio 5% or less (practically no effect))
CSc1nnc(NC(=O)C(C)(C)N2COCN(c3ccccc3)C2=O)s1 [A-1-15]	0 (weed kill ratio 5% or less (practically no effect))	0 (weed kill ratio 5% or less (practically no effect))	0 (weed kill ratio 5% or less (practically no effect))	0 (weed kill ratio 5% or less (practically no effect))	0 (weed kill ratio 5% or less (practically no effect))	0 (weed kill ratio 5% or less (practically no effect))	5 (weed kill ratio 90% or more, (practically complete withering))	5 (weed kill ratio 90% or more, (practically complete withering))	0 (weed kill ratio 5% or less (practically no effect))	0 (weed kill ratio 5% or less (practically no effect))	0 (weed kill ratio 5% or less (practically no effect))	4 (weed kill ratio 70% or more, less than 90%)	5 (weed kill ratio 90% or more, (practically complete withering))	3 (weed kill ratio 40% or more, less than 70%)	0 (weed kill ratio 5% or less (practically no effect))	0 (weed kill ratio 5% or less (practically no effect))	5 (weed kill ratio 90% or more, (practically complete withering))	0 (weed kill ratio 5% or less (practically no effect))	1 (weed kill ratio 5% or more, less than 20%)	1 (weed kill ratio 5% or more, less than 20%)	f: beet, effect on crop grade [21]: 0 (weed kill ratio 5% or less (practically no effect)); A: barnyard grass, weed kill grade [22]: 4 (weed kill ratio 70% or more, less than 90%); c: corn, effect on crop grade [23]: 0 (weed kill ratio 5% or less (practically no effect)); C: oval-leafed pondweed, weed kill grade [24]: 5 (weed kill ratio 90% or more, (practically complete withering)); P: birds-eye speedwell, weedkilling efficacy grade [25]: 3 (weed kill ratio 40% or more, less than 70%); K: Indian mallow, weedkilling efficacy grade [26]: 0 (weed kill ratio 5% or less (practically no effect))
